What was measured:
[1] = tested on: HepG2-2.2.15-cells; type: cell-based
Protocol: The fixed membrane was pre-hybridized in a standard hybridisation buffer (50% formamide, 5×SSPE, 10×Denhards, 1% SDS, 100 μg/ml salmon sperm DNA) for at least 3 hours at 42° C. and hybridised overnight against the labelled HBV-fragment. The preparation of the HBV-fragment with the “Random primers DNA labelling system” (Invitrogen) was done according to the manufacturer's instructions. Hybridized filter were washed at room temperature with 2×SSC, at 62° C. with 2×SSC, 0.5% SDS and at 62° C. with 0.5×SSC, 0.5% SDS. Each washing step was carried out twice. The intensity of the HBV-DNA was quantified using a phosphoimager (Fuji). To test the cell viability 0.5×10^4 HepG2-2.2.15-cells were seeded in 96-well-microtiter plates in DMEM medium supplemented with 10% fetal bovine serum. After incubation at 37° C. for 24 hours the medium was replaced by fresh compound-containing medium. 3 days later medium was replaced again by freshly prepared medium containing the inhibitor and the cells were incubated for further 3 days at 37° C. After the incubation period 1/10 volume of Alamar Blue (Serotec) solution containing a growth dependant indicator was added and the cells were incubated for 3 h at 37° C. Absorbance was monitored at 570 nm and 600 nm wavelength.

[2] = tested on: NFκB-dependent transcriptional activity; test: NFκB-dependent transcriptional activity (NIH 3T3 75E 11/300D8 cell line); type: cell-based
Description: NFκB-dependent Transcriptional Activity:
The used NIH 3T3 75E 11/300D8 cell line is described elsewhere (J. Eickhoff et al., Journal of Biological Chemistry, 2004, 279(10), 9642-9652).
It is known, that CDK9 regulates the NFκB-dependent transitional activity. With Compound 4, Compound 7 and Compound 30 studies were done, to evaluate their effect on NFκB-dependent transcriptional activity.

[3] = tested on: HBV; test: HBV replication assay in HepG2-2.2.15 cells; type: cell-based
Protocol: To test anti—HBV-activity of compounds the HBV-producing cell line HepG2-2.2.15 (M. A. Sells, PNAS 1987, 84, 1005-1009) was used. 1.0×10^4 cells were seeded in 96-well microtiter plates in DMEM medium supplemented with 10% FCS. After incubation at 37° C. in 5% CO2 atmosphere for 24 hours the medium was replaced with fresh medium containing the appropriately diluted compound. 3 days later medium was replaced by freshly prepared inhibitor-containing medium and the cells were incubated for further 3 days. Subsequently 200 μl lysis buffer (50 mM Tris-Cl 7.5; 1 mM EDTA 8.0; 0.5% NP40) per well was added. To remove cell debris and […], lysate was centrifuged (15000 rpm, 10 min, 4° C.). Cellular and viral RNA was removed by addition of 2 μl of RNase. 100 μl of the samples were spotted onto an uncharged nylon membrane pre-wetted with PBS (phosphate-buffered saline) using a 96 well-blotting chamber (MINIfold Dot-Blot, Schleicher&Schüll). After further washing with 200 μl PBS per well the membrane was treated twice with 0.5 M NaOH, 1.5 M NaCl (2 min) and 4 times with 0.5 M Tris 7.5, 3 M NaCl (1 min). The nucleic acids were fixed by UV-treatment and used for hybridisabon with a radioactive HBV-fragment prepared from the overgenome-length HBV-plasmid pT-HBV1.3 (L. G. Guidotti et al., Journal of Virology 1995., 69(10), 6158-6169).
The fixed membrane was pre-hybridized in a standard hybridisation buffer (50% formamide, 5×SSPE, 10×Denhards, 1% SDS, 100 μg/ml salmon sperm DNA) for at least 3 hours at 42° C. and hybridised overnight against the labelled HBV-fragment. The preparation of the HBV-fragment with the “Random primers DNA labelling system” (Invitrogen) was done according to the manufacturer's instructions. Hybridized filter were washed at room temperature with 2×SSC, at 62° C. with 2×SSC, 0.5% SDS and at 62° C. with 0.5×SSC, 0.5% SDS. Each washing step was carried out twice. The intensity of the HBV-DNA was quantified using a phosphoimager (Fuji). […] Absorbance was monitored at 570 nm and 600 nm wavelength.

[4] = target: GSK-3β (Homo sapiens, UniProt P49841); test: General kinase assay, selectivity panel: GSK-3β; type: biochemical; settings: 10 μM of compound, in comparison to DMSO (0% inhibition)
Chain of GSK-3β (P49841 whole entry, species assumed): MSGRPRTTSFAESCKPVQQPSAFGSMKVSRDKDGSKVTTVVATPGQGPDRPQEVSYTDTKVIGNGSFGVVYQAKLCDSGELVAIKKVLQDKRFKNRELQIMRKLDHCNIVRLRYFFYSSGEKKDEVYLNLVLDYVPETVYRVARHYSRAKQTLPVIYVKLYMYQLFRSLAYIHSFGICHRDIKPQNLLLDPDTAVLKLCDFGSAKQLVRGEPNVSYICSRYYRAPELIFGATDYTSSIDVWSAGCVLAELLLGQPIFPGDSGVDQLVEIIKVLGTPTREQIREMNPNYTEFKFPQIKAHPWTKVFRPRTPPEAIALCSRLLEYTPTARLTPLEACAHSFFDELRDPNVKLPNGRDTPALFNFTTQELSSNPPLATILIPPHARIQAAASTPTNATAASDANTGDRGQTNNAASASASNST
Method in brief: (§1)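 [γ-33P]ATP incorporation, 1 h RT, EDTA stop; MAPH filter capture, 0.75% H3PO4 washes, scintillation count. Compound tested at 10 μM; % inhibition vs DMSO (0%).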

[5] = target: T1, CDK9 (Homo sapiens, UniProt P50750); test: Affinity chromatography with immobilised compound, PM1 cell lysate, mass spectrometry: CDK9; type: binding; settings: compound coupled to ECH-Sepharose
T1 construct: endogenous in cells; host or cells: PM1 cells (lysate)
T1 sequence (P50750 whole entry): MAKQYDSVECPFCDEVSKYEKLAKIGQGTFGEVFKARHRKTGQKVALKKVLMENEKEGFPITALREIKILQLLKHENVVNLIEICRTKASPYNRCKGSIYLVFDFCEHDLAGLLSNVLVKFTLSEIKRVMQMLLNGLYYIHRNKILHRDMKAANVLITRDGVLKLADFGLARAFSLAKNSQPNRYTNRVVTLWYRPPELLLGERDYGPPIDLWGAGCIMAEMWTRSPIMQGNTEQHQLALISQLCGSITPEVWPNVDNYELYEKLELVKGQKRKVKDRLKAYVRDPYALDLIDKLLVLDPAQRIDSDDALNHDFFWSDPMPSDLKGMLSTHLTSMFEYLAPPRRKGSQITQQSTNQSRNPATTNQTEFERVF
Protocol: (§2) Affinity Chromatography Experiments:
(§3) Coupling to epoxy-groups: 500 μl drained epoxy-activated Sepharose 6B (Amersham Biosciences) equilibrated to 50% DMF/0.1M Na2CO3 were resuspended in 1 ml 20 mM Compound 102 or 20 mM Compound 103, respectively, dissolved in 50% DMF (Dimethylfomamid)/0.1 M Na2CO3. 5 μl 10M NaOH was added followed by incubation overnight at 30° C. with permanent shaking in the dark. After washing three times in 1 ml 50% DMF/0.1M Na2CO3 the beads were incubated in 1 ml 1M ethanolamine for 6 h at 30° C. with permanent shaking in the dark followed by the denoted washing steps: 50% DMF/0.1M Na2CO3, then H2O, then 0.1M NaHCO3 pH 8.0/0.5M NaCl followed by 0.1M NaAc pH 4.0/0.1M NaCl and finally three times in chromatography buffer (see below) containing 150 mM NaCl. As control matrix epoxy-activated Sepharose 6B was incubated with 1M ethanolamine and equally treated as described above. The beads were stored in 20% ethanol at 4° C. in the dark.
Carbodiimide coupling: ECH-Sepharose 4B (Amersham Biosciences) was washed according to the manufacturer's instructions and equilibrated to 50% DMF/50% ethanol. 2.5 ml drained beads were resuspended in 5 ml 15 mM Compound 102 or Compound 103, respectively, dissolved in 50% DMF/50% ethanol followed by drop by drop addition of 750 μl 1M 1-ethyl-3-(3-dimethylaminopropyl) carbodiimide hydrochloride (EDC), dissolved in 50% DMF/50% ethanol. […]

[6] = target: EGFR (Homo sapiens, UniProt P00533); test: General kinase assay, selectivity panel: EGFR; type: biochemical; settings: 10 μM of compound, in comparison to DMSO (0% inhibition)
Chain of EGFR (P00533 25-1210, species assumed): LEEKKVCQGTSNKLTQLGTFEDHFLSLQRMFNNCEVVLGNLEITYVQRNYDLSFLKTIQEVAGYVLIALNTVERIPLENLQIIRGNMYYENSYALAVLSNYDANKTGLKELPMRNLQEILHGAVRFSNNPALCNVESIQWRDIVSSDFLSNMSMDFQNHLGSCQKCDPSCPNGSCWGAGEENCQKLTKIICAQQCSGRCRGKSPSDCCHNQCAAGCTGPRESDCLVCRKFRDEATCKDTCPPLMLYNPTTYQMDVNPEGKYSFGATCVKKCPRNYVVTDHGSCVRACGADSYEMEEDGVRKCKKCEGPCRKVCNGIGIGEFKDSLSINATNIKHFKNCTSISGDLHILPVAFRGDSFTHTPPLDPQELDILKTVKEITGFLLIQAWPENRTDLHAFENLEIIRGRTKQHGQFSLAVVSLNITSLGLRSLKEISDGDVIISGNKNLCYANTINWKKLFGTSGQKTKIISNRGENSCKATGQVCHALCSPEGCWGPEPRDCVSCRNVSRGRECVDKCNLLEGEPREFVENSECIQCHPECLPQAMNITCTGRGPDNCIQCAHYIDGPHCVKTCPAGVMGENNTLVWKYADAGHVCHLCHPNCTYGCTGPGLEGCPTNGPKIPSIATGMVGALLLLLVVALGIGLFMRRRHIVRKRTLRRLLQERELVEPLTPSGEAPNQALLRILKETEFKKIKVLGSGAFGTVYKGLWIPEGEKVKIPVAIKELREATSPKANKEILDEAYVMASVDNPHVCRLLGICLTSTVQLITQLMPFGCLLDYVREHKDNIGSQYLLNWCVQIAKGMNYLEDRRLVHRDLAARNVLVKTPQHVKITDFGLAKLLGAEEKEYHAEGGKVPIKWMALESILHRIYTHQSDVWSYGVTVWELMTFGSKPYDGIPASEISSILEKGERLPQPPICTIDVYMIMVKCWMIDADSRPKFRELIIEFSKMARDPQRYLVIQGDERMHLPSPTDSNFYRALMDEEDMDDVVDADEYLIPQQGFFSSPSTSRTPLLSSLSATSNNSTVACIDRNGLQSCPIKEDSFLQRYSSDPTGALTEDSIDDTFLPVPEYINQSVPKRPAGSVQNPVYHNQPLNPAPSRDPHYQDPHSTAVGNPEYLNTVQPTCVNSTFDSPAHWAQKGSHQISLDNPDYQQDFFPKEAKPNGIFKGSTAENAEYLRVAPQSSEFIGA
Method in brief: as §1

[7] = target: T2, CDK5/p35 (Homo sapiens, UniProt Q00535); test: Kinase assay determining CDK5/p35 activity (selectivity panel); type: biochemical; settings: 10 μM of compound, in comparison to DMSO (0% inhibition)
T2 construct: purchased Upsate (Upstate)
T2 sequence (Q00535 whole entry): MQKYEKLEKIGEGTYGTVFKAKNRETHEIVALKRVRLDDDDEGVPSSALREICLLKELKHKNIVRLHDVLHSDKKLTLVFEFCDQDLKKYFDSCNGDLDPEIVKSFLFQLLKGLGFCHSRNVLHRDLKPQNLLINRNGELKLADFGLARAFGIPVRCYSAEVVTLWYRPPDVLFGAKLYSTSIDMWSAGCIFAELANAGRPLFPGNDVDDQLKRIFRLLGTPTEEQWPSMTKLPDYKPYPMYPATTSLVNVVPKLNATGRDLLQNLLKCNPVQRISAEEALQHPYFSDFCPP
T2 sequence (Q15078 whole entry partner): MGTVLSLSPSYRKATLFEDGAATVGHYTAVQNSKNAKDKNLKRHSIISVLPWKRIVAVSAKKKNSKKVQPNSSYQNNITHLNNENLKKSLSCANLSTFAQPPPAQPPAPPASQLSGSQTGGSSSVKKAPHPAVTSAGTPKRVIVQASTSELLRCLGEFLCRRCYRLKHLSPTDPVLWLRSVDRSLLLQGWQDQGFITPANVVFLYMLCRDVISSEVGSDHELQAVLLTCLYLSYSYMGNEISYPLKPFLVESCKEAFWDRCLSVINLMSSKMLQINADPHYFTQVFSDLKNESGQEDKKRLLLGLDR
Protocol: Kinase Assays Determining CDK2/CyclinA and CDK5/p35 Activity:
Kinase assays were performed as described by the manufacturers recommendations (Proqinase for CDK2/CyclinA and Upsate for CDK5/p35).
The activity of these protein kinases is depicted as % inhibition in the presence of 10 μM of compound in comparison to DMSO (0% inhibition).

[8] = target: CDK1 (Homo sapiens, UniProt P06493); test: General kinase assay, selectivity panel: CDK1; type: biochemical; settings: 10 μM of compound, in comparison to DMSO (0% inhibition)
Chain of CDK1 (P06493 whole entry, species assumed): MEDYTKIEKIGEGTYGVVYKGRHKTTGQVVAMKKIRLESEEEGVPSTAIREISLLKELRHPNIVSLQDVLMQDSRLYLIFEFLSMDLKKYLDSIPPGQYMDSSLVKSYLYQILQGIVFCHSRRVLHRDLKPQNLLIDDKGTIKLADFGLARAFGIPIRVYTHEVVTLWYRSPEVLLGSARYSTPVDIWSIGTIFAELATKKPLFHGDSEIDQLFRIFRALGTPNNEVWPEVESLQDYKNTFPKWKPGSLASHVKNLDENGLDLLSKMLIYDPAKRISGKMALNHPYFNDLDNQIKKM
Chain of CDK1 (P14635 whole entry partner, species assumed): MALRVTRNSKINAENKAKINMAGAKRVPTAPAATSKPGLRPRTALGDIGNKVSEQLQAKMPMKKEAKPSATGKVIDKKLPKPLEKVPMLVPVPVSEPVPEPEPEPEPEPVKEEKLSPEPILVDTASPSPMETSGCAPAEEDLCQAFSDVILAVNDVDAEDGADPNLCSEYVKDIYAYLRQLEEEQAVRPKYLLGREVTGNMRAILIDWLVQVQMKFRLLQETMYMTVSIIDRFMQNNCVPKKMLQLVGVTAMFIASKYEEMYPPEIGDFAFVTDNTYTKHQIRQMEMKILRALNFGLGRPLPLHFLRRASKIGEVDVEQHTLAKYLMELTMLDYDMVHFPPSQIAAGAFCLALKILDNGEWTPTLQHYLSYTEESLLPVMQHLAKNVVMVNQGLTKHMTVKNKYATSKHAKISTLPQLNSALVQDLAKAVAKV
Method in brief: as §1

[9] = tested on: protein kinases of PM1 cell lysates; test: Affinity chromatography with immobilised compound, PM1 cell lysate, mass spectrometry: additional targets; type: binding
Protocol: as §2, §3
Carbodiimide coupling: ECH-Sepharose 4B (Amersham Biosciences) was washed according to the manufacturer's instructions and equilibrated to 50% DMF/50% ethanol. 2.5 ml drained beads were resuspended in 5 ml 15 mM Compound 102 or Compound 103, respectively, dissolved in 50% DMF/50% ethanol followed by drop by drop addition of 750 μl 1M 1-ethyl-3-(3-dimethylaminopropyl) carbodiimide hydrochloride (EDC), dissolved in 50% DMF/50% ethanol. The suspension was incubated overnight at room temperature with permanent end-over-end rotation and washed three times with 15 ml 50% DMF/50% ethanol prior to the addition of 5 ml 33% DMF/33% ethanol/34% 1M ethanolamine pH 8.0 and 650 μl EDC. After 2 h incubation at room temperature with permanent end-over-end rotation, beads were washed three times with 15 ml 50% DMF/50% ethanol, twice with 15 ml 0.5M NaCl and once with 15 ml 20% ethanol. Control beads were incubated with 5 ml 1M ethanolamine instead of compound and treated equally as described above. The beads were stored in 20% ethanol at 4° C. in the dark.
Affinity Chromatography and Preparative Gel Electrophoresis.
1.25×10^9 PM1 cells were lysed in 15 ml buffer containing 50 mM HEPES pH 7.5, 400 mM NaCl, 0.5% Triton X-100, 1 mM EDTA, 1 mM EGTA, 3 mM MgCl2, 1 mM DTT plus additives (10 mM sodium fluoride, 1 mM orthovanadate, 10 μg/ml aprotinin, 10 μg/ml leupeptin, 1 mM PMSF), cleared by centrifugation and adjusted to 1M NaCl. The filtered lysate was loaded with a flow rate of 100 μl/min on a […] chromatography column containing 500 μl Compound 102 or Compound 103 matrix, respectively, equilibrated to chromatography buffer (20 mM HEPES pH 7.5, 0.25% Triton X-100, 1 mM EDTA, 1 mM EGTA) containing 1M NaCl. […]

[10] = tested on: PDGFR; test: General kinase assay, selectivity panel: PDGFR; type: biochemical; settings: 10 μM of compound, in comparison to DMSO (0% inhibition)
Method in brief: as §1

[11] = target: Abl (Homo sapiens, UniProt P00519); test: General kinase assay, selectivity panel: Abl; type: biochemical; settings: 10 μM of compound, in comparison to DMSO (0% inhibition)
Chain of Abl (P00519 whole entry, species assumed): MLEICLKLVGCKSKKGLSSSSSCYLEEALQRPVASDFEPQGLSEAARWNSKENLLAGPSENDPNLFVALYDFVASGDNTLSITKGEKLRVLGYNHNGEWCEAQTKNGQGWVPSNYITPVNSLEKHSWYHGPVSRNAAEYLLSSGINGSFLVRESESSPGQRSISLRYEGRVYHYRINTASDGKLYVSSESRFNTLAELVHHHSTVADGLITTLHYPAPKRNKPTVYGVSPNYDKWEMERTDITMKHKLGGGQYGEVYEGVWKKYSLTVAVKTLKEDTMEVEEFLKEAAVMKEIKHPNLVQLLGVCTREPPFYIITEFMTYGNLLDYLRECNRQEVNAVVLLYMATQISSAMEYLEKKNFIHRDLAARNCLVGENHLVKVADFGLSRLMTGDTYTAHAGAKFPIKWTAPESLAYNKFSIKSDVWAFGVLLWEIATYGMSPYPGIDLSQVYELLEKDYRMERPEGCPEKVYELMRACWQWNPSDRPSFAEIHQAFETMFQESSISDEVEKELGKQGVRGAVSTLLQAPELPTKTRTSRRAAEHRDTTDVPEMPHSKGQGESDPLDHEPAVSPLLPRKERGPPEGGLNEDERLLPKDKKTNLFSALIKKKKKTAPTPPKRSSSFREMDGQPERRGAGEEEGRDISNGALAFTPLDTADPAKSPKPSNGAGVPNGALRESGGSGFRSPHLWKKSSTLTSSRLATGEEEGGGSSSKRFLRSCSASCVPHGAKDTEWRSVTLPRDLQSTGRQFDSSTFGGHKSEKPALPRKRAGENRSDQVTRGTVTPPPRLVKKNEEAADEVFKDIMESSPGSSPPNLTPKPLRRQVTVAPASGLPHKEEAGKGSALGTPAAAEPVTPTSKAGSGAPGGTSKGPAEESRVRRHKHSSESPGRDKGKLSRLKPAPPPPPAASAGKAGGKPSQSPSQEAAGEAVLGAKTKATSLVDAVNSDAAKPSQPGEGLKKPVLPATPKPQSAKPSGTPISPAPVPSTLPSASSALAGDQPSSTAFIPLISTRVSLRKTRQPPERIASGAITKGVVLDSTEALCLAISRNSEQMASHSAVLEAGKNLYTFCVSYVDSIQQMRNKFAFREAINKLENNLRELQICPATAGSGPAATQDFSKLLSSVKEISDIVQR
Method in brief: as §1

[12] = compound coupled to ECH-Sepharose, mass spectrometry

| Structure (SMILES) | viability of the cells in the HBV replication assay [1] | inhibition of NFκB (in words, compared with Compound 30) [2] | HBV replication (in words) [3] | inhibition at 10 µM [4] [%] | isolation of CDK9 out of crude PM1 cell lysates by affinity medium [5] | inhibition at 10 µM [6] [%] | inhibition at 10 µM [7] [%] | inhibition at 10 µM [8] [%] | protein kinases in eluates: CaMK2β, GSK3α, CDK2, CrkRS, receptor similar to FGFR-3 ([9]; LCMS analysis of eluates) | additional targets bound: GSK3β, c-Src tyrosine kinase (CSK) [9, 12] | PDGFR (% inhibition) [10] | protein kinases in eluates: CaMK2β, MLK (MRK-alpha), yes, cdc2-like protein kinase (CDC2L5), CrkRS, MAK ([9]; LCMS analysis of eluates) | additional targets bound: CaMK2γ, CaMK2δ, CDK2, MRK-beta (ZAK) [9, 12] | inhibition at 10 µM [11] [%] |
| --- | --- | --- | --- | --- | --- | --- | --- | --- | --- | --- | --- | --- | --- | --- |
| c1ccc(COc2ccccc2-c2cc(NCCc3ccncc3)ncn2)cc1 [Compound 7] | without affecting viability | less effectively | inhibited replication |  |  |  |  |  |  |  |  |  |  |  |
| NCCCOc1ccccc1-c1cc(Nc2ccc(NC(=O)c3ccc(N)cc3)cc2)ncn1 [Compound 103, 4-Amino-N-(4-{6-[2-(3-amino-propoxy)phenyl]-pyrimidin-4-ylamino}-phenyl)-benzamide] |  |  |  | 50 to 80 | able to isolate CDK9 | > 80 | 50 to 80 | 50 to 80 | detected | specifically bound | c (inhibition between 50 and 30%: c) |  |  |  |
| COc1ccccc1-c1cc(Nc2ccc(NC(=O)CCN)cc2)ncn1 [Compound 102, 3-Amino-N-{4-[6-(2-methoxy-phenyl)-pyrimidin-4-ylamino]-phenyl}-propionamide] |  |  |  |  | able to isolate CDK9 | > 80 | > 80 | 50 to 80 |  |  | b (inhibition between 80 and 50%: b) | identified | specifically bound | 30 to 50 |

Source: US8084457B2, “Pharmaceutically active 4,6-disubstituted aminopyrimidine derivatives as modulators of protein kinases” (Lead Discovery Center GmbH, priority 2003, dated 2011)
